Measurements from PMC3814616, “BRAF inhibitors suppress apoptosis through off-target inhibition of JNK signaling” (eLife, 2013).

Experiments:
BLK = target: T1, BLK (Homo sapiens, UniProt P51451); assay: Quantitative competitive binding assay (KINOMEscan); settings: for IC50: estimated Kd, averaged pointwise estimates, transformed Hill equation, read-out: Calculated estimate of IC50; for remaining binding at 0.05 µM: read-out: Percent control (50 nM); for remaining binding at 0.2 µM: read-out: Percent control (200 nM); for remaining binding at 1 µM: read-out: Percent control (1000 nM); for remaining binding at 10 µM: read-out: Percent control (10 μM)
T1 construct: purchased KINOMEscan (DiscoveRx), San Diego, CA
T1 sequence (P51451 whole entry): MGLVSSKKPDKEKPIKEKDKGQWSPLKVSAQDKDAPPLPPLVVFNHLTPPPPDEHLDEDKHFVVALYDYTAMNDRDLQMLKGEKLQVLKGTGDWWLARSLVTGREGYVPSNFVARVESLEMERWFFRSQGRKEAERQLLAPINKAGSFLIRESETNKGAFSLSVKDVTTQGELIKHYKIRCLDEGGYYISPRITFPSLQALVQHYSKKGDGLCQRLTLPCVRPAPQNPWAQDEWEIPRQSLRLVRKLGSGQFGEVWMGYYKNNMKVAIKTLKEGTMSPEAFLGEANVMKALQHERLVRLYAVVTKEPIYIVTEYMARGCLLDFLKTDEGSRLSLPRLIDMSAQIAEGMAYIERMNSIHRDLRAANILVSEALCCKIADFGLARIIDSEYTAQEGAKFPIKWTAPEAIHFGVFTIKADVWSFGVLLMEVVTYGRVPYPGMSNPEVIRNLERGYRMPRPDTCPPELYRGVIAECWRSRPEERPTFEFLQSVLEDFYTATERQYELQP

SRMS = SRMS (Homo sapiens, UniProt Q9H3Y6); assay: as above; settings: for IC50: estimated Kd, averaged pointwise estimates, transformed Hill equation, read-out: Calculated estimate of IC50; for remaining binding at 0.05 µM: read-out: Percent control (50 nM); for remaining binding at 0.2 µM: read-out: Percent control (200 nM); for remaining binding at 1 µM: read-out: Percent control (1000 nM); for remaining binding at 10 µM: read-out: Percent control (10 μM)
Chain of SRMS (Q9H3Y6 whole entry): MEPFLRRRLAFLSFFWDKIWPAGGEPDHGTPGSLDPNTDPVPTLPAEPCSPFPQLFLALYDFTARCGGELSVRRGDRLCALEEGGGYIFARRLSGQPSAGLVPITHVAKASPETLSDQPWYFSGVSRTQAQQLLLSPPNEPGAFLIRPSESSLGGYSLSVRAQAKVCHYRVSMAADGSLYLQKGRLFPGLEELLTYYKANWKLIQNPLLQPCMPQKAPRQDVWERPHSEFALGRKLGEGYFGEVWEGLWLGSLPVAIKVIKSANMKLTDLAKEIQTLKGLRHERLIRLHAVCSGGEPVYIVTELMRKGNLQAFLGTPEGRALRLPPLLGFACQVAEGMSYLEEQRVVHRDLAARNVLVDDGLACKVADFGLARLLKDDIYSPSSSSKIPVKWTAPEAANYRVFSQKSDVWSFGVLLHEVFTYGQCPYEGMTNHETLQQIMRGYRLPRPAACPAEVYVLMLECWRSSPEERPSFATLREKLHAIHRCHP

[1] = test system: phospho-MKK4 and phospho-MKK7; assay: Western blot, UV-induced phosphorylation of MKK4 and MKK7; settings: cSCC cell lines, HaCaT, NHEK; 1 μM
TAOK3 = target: T2, TAOK3 (Homo sapiens, UniProt Q9H2K8); assay: Quantitative competitive binding assay (KINOMEscan); settings: for remaining binding at 0.05 µM: read-out: Percent control (50 nM); for remaining binding at 0.2 µM: read-out: Percent control (200 nM); for remaining binding at 1 µM: read-out: Percent control (1000 nM); for remaining binding at 10 µM: read-out: Percent control (10 μM)
T2 construct: purchased KINOMEscan (DiscoveRx), San Diego, CA
T2 sequence (Q9H2K8 whole entry): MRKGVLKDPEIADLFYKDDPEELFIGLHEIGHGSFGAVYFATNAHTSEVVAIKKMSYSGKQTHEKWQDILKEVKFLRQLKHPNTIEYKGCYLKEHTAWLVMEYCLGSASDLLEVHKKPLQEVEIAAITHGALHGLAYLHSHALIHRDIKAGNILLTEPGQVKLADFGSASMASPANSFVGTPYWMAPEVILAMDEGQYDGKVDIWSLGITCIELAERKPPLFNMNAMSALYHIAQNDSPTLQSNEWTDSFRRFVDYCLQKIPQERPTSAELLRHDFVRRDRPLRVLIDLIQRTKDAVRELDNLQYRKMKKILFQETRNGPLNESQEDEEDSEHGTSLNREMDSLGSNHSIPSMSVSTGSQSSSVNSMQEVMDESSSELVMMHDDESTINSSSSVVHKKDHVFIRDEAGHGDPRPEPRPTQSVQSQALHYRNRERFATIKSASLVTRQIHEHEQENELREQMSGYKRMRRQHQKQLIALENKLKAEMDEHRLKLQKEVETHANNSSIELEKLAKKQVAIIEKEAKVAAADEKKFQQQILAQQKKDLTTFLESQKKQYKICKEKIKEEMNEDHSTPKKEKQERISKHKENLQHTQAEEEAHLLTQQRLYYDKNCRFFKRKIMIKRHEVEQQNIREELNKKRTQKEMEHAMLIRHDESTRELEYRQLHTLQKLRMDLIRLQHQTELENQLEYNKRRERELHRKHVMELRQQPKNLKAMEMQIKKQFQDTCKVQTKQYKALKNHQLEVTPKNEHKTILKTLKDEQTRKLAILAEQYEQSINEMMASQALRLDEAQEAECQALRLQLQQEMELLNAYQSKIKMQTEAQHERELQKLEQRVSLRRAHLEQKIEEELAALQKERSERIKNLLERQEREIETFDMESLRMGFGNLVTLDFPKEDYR

MAP4K3 = target: T3, MAP4K3 (Homo sapiens, UniProt Q8IVH8); assay: as above; settings: for remaining binding at 0.05 µM: read-out: Percent control (50 nM); for remaining binding at 0.2 µM: read-out: Percent control (200 nM); for remaining binding at 1 µM: read-out: Percent control (1000 nM); for remaining binding at 10 µM: read-out: Percent control (10 μM)
T3 construct: purchased KINOMEscan (DiscoveRx), San Diego, CA
T3 sequence (Q8IVH8 1-894): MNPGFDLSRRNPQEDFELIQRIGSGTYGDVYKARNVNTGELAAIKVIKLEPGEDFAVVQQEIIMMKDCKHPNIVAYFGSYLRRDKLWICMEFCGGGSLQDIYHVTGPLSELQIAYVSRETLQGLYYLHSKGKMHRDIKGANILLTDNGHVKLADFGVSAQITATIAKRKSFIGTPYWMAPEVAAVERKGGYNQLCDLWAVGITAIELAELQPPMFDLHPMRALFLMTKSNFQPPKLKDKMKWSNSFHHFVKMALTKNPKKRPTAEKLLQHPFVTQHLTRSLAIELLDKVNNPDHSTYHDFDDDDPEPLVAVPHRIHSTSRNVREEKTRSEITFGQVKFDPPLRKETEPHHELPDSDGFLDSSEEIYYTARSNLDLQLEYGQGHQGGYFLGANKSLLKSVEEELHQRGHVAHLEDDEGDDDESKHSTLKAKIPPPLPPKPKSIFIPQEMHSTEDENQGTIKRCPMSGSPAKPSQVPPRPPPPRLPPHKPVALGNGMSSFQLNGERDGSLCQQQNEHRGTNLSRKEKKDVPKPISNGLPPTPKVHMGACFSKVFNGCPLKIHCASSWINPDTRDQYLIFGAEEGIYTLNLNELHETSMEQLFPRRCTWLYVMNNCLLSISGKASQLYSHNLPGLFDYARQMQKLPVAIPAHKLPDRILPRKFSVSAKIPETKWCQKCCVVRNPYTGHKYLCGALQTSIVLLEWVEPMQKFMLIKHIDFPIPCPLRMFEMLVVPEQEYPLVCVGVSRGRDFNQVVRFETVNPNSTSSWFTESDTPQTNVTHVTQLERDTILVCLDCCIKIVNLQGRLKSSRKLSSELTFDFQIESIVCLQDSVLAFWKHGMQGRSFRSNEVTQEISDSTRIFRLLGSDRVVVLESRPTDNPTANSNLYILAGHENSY

ASK2 (MAP3K6) = target: T4, ASK2 (MAP3K6) (Homo sapiens, UniProt O95382); assay: as above; settings: for remaining binding at 0.05 µM: read-out: Percent control (50 nM); for remaining binding at 0.2 µM: read-out: Percent control (200 nM); for remaining binding at 1 µM: read-out: Percent control (1000 nM); for remaining binding at 10 µM: read-out: Percent control (10 μM)
T4 construct: purchased KINOMEscan (DiscoveRx), San Diego, CA
T4 sequence (O95382 1-1288): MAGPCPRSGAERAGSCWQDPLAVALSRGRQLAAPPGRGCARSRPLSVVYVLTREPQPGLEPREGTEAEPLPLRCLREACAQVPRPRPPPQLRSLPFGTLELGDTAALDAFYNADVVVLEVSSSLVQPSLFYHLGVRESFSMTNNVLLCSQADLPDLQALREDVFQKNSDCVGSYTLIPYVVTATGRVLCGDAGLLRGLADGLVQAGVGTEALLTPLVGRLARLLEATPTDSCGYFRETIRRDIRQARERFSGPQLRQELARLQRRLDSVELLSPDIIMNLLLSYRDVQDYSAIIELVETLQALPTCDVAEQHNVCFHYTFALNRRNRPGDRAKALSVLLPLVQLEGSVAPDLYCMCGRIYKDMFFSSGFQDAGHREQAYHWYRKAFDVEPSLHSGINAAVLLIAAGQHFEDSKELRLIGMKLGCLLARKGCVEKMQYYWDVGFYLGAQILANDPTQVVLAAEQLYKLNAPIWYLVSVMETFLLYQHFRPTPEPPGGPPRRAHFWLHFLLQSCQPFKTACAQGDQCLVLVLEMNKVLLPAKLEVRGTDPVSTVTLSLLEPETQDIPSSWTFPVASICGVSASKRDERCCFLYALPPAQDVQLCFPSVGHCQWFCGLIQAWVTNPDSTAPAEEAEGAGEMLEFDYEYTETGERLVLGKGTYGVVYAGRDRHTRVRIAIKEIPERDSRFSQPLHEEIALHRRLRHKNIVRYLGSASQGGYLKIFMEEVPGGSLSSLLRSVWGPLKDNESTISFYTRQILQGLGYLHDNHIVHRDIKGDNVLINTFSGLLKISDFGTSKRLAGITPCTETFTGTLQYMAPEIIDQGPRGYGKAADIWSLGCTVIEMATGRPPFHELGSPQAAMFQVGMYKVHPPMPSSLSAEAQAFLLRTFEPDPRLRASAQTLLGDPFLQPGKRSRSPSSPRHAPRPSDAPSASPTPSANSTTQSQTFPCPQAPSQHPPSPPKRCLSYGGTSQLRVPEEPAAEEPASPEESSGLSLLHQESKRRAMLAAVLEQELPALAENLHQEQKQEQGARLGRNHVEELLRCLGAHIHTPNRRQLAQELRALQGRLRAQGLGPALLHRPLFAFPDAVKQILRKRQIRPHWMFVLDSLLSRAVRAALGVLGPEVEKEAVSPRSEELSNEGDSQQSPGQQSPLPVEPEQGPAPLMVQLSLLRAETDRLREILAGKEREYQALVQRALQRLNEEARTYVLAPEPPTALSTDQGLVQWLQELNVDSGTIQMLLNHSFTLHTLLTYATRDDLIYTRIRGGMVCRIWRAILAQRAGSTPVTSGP

ZAK = target: T5, ZAK (Homo sapiens, UniProt Q9NYL2); assay: as above; settings: for remaining binding at 0.05 µM: read-out: Percent control (50 nM); for remaining binding at 0.2 µM: read-out: Percent control (200 nM); for remaining binding at 1 µM: read-out: Percent control (1000 nM); for remaining binding at 10 µM: read-out: Percent control (10 μM)
T5 construct: purchased KINOMEscan (DiscoveRx), San Diego, CA
T5 sequence (Q9NYL2 whole entry): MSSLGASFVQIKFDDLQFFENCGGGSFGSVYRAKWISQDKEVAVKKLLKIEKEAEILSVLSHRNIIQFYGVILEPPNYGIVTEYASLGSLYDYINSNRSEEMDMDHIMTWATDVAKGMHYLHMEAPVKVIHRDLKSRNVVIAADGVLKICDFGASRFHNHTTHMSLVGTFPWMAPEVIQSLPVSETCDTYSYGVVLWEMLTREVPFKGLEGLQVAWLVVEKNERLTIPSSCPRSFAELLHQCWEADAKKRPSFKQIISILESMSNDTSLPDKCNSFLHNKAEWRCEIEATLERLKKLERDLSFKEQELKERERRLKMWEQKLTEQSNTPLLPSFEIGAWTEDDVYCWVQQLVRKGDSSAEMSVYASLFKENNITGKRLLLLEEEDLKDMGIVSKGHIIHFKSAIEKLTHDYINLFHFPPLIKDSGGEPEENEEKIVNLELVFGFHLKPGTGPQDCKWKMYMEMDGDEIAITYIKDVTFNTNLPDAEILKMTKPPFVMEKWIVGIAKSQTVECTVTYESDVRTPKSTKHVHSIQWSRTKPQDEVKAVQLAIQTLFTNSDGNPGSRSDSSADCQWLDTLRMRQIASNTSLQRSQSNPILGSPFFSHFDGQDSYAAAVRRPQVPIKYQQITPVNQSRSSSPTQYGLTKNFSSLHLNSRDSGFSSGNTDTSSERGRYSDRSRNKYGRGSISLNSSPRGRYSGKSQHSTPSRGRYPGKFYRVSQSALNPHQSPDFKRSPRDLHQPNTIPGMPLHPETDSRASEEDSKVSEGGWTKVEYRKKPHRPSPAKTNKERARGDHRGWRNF

MLK1 (MAP3K9) = target: T6, MLK1 (MAP3K9) (Homo sapiens, UniProt P80192); assay: as above; settings: for IC50: estimated Kd, averaged pointwise estimates, transformed Hill equation, read-out: Calculated estimate of IC50; for remaining binding at 0.05 µM: read-out: Percent control (50 nM); for remaining binding at 0.2 µM: read-out: Percent control (200 nM); for remaining binding at 1 µM: read-out: Percent control (1000 nM); for remaining binding at 10 µM: read-out: Percent control (10 μM)
T6 construct: purchased KINOMEscan (DiscoveRx), San Diego, CA
T6 sequence (P80192 whole entry): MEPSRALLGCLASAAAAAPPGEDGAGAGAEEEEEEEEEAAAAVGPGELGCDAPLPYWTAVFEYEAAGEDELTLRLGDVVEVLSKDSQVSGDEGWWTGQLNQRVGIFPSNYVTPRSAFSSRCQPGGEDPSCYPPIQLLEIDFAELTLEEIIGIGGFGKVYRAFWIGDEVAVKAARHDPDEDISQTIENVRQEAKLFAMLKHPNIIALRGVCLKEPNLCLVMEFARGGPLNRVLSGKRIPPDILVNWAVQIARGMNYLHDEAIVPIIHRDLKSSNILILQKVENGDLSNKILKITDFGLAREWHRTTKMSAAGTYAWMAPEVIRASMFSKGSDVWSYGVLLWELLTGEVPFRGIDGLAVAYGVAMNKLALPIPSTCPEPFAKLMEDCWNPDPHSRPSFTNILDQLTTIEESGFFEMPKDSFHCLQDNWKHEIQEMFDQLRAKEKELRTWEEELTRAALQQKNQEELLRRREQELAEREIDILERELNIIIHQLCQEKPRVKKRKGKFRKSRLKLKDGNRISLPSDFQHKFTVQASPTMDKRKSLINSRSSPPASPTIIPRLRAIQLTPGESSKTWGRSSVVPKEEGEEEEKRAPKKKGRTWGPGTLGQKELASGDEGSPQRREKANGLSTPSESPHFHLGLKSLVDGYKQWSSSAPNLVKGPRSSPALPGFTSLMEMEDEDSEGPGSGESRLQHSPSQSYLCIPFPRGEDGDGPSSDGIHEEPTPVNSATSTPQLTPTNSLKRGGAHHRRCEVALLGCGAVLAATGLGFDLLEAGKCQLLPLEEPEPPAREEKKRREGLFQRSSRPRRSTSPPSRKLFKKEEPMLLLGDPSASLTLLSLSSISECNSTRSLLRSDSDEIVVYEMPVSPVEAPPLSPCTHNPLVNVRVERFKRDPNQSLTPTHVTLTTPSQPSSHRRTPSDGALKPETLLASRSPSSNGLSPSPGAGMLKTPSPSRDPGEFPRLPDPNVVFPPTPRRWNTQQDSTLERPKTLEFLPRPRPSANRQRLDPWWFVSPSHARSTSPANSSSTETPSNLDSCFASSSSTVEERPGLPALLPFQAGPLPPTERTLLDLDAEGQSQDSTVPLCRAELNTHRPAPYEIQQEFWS

[2] = estimated Kd, averaged pointwise estimates, transformed Hill equation, read-out: Calculated estimate of IC50

## CCCS(=O)(=O)Nc1ccc(F)c(C(=O)c2c[nH]c3ncc(-c4ccc(Cl)cc4)cc23)c1F [vemurafenib]
BLK
  IC50: 518 nM
  remaining binding at 0.05 µM: 96%
  remaining binding at 0.2 µM: 66%
  remaining binding at 1 µM: 30%
  remaining binding at 10 µM: 0.55%
SRMS
  IC50: 11.1 nM
  remaining binding at 0.05 µM: 24%
  remaining binding at 0.2 µM: 9.6%
  remaining binding at 1 µM: 0.75%
  remaining binding at 10 µM: 0%
[1]
  UV-induced phosphorylation of MKK4 and MKK7: suppressed
TAOK3; [2]
  IC50: 15500 nM
TAOK3
  remaining binding at 0.05 µM: 92%
  remaining binding at 0.2 µM: 98%
  remaining binding at 1 µM: 92%
  remaining binding at 10 µM: 80%
MAP4K3
  remaining binding at 0.05 µM: 80%
  remaining binding at 0.2 µM: 90%
  remaining binding at 1 µM: 82%
  remaining binding at 10 µM: 24%
ASK2 (MAP3K6)
  remaining binding at 0.05 µM: 94%
  remaining binding at 0.2 µM: 98%
  remaining binding at 1 µM: 100%
  remaining binding at 10 µM: 74%
ZAK; [2]
  IC50: < 50 nM
ZAK
  remaining binding at 0.05 µM: 9%
  remaining binding at 0.2 µM: 1.8%
  remaining binding at 1 µM: 0.25%
  remaining binding at 10 µM: 0.05%
MLK1 (MAP3K9)
  IC50: 14000 nM
  remaining binding at 0.05 µM: 100%
  remaining binding at 0.2 µM: 93%
  remaining binding at 1 µM: 97%
  remaining binding at 10 µM: 41%

## CCCS(=O)(=O)Nc1ccc(F)c(C(=O)c2c[nH]c3ncc(Cl)cc23)c1F [PLX4720]
BLK
  IC50: 447 nM
  remaining binding at 0.05 µM: 91%
  remaining binding at 0.2 µM: 78%
  remaining binding at 1 µM: 32%
  remaining binding at 10 µM: 1%
SRMS
  IC50: 0.64 nM
  remaining binding at 0.05 µM: 1.9%
  remaining binding at 0.2 µM: 0.55%
  remaining binding at 1 µM: 0.05%
  remaining binding at 10 µM: 0%
[1]
  UV-induced phosphorylation of MKK4 and MKK7: inhibited
TAOK3
  remaining binding at 0.05 µM: 100%
  remaining binding at 0.2 µM: 98%
  remaining binding at 1 µM: 96%
  remaining binding at 10 µM: 58%
MAP4K3
  remaining binding at 0.05 µM: 100%
  remaining binding at 0.2 µM: 95%
  remaining binding at 1 µM: 90%
  remaining binding at 10 µM: 56%
ASK2 (MAP3K6)
  remaining binding at 0.05 µM: 94%
  remaining binding at 0.2 µM: 100%
  remaining binding at 1 µM: 100%
  remaining binding at 10 µM: 100%
ZAK
  remaining binding at 0.05 µM: 20%
  remaining binding at 0.2 µM: 4%
  remaining binding at 1 µM: 0.7%
  remaining binding at 10 µM: 0.1%
MLK1 (MAP3K9)
  IC50: > 10000 nM
  remaining binding at 0.05 µM: 100%
  remaining binding at 0.2 µM: 100%
  remaining binding at 1 µM: 100%
  remaining binding at 10 µM: 100%
